We go through 2 molecules from ChEMBL document CHEMBL6153085, “Discovery of N-(1,2,4-Thiadiazol-5-yl)benzo[b]oxepine-4-carboxamide Derivatives as Novel Antiresistance Androgen Receptor Antagonists” (J Med Chem, 2025).

A word on the IC50: it is the concentration that inhibits the measured activity by half.

One data set addresses T1, Androgen receptor (Homo sapiens, UniProt P10275).
T1 sequence (P10275 whole entry): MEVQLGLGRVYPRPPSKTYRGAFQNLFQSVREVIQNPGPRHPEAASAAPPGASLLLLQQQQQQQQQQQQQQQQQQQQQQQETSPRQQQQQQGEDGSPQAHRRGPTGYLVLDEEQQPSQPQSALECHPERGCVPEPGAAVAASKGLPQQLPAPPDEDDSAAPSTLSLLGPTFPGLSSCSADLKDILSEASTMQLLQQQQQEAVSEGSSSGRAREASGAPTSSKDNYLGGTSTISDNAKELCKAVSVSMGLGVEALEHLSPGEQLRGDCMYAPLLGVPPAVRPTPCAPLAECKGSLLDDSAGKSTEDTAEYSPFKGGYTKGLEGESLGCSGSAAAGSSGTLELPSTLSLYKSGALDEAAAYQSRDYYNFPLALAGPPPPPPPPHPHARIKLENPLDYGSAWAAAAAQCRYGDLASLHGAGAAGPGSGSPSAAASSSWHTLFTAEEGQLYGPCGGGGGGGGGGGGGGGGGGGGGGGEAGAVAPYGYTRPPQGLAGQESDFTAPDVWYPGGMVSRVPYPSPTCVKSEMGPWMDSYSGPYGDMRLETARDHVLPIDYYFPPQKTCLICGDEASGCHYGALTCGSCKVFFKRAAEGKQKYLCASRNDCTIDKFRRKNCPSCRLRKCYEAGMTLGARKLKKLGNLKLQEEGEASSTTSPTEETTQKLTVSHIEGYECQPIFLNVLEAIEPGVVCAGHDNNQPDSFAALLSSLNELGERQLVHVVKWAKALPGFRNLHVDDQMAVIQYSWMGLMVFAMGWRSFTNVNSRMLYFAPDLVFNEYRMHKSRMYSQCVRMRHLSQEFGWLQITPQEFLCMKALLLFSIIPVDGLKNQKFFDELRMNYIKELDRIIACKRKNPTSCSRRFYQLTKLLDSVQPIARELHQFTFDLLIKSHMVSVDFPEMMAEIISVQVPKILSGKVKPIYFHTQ
Description: Antagonist activity at Androgen receptor in human LNCaP cells expressing ARR2PB-eGFP incubated for 3 days by fluorescence based assay.

Data set [1] can be described thus: Antiproliferative activity against human LNCaP-EnzR cells assessed as inhibition of cell proliferation incubated for 3 days by MTT assay. The settings on record: 72 h. A general note: Tetrazolium assays rely on reduction of a dye to a coloured formazan, in cell work by metabolically active cells.
The test system of another data set is LNCaP. Description: Antiproliferative activity against human LNCaP cells assessed as inhibition of cell proliferation incubated for 3 days by MTT assay. The following applies: 72 h.
Data set [2] in a line: Antiproliferative activity against mouse 3T3 cells incubated for 3 days by MTT assay. The settings on record: NIH3T3 cells.

For the molecule `CC(=O)Cc1nsc(NC(=O)/C=C/c2ccc(C(F)(F)F)cc2)n1`, at Androgen receptor, the IC50 was determined as 16 µM.

Consider `CNC(=O)c1ccc(N2C(=S)N(c3ccc(C#N)c(C(F)(F)F)c3)C(=O)C2(C)C)cc1F` [ENZALUTAMIDE], for which the IC50 in data set [1] is greater than 50 µM; with LNCaP, 15.8 µM. Moreover, the IC50 at 3 days in data set [2] was greater than 50 µM.
